Data published in publication PMC6364417, “Kinase inhibitor library screening identifies synergistic drug combinations effective in sensitive and resistant melanoma cells” (Journal of Experimental & Clinical Cancer Research : CR, 2019).

Key:
Assay in all cases: Kinase inhibitor library screening, PrestoBlue cell viability, 1 or 10 μM, 72 h
[1] = test system: A375 cells (parental); details: for Cell viability in kinase inhibitor library screening, A375 Parental, 10μΜ / Cell viability in kinase inhibitor library screening, A375 Parental, 1μΜ / cell viability (kinase inhibitor library screening): 72 h, A375 Parental
Experimental: (§1) After 72 h of treatment, cell viability was assessed using the PrestoBlue Cell Viability Reagent (ThermoFisher Scientific). Measurements were performed with the CLARIOstar Monochromator microplate reader (BMG Labtech).
(§2) Kinase inhibitor library screening. […] Each cell line was treated in its sensitive form (parental), and also as 2 resistant derivatives, which were made resistant to either Vemurafenib (XP) or Dabrafenib (GP). Drugs were added at 2 different concentrations, 1 and 10 μM, for 72 h and cell viability was assessed using the PrestoBlue Cell Viability assay. Results are depicted as % viability compared to untreated cells. Each cell line was analyzed at least in duplicate. […] (XLSX 95 kb)

[2] = test system: A375-XP cells (Vemurafenib-resistant); details: for Cell viability in kinase inhibitor library screening, A375 XP, 1μΜ / Cell viability in kinase inhibitor library screening, A375 XP, 10μΜ / cell viability (kinase inhibitor library screening): 72 h, A375 XP
Experimental: as §1, §2

[3] = test system: IGR37-GP cells (Dabrafenib-resistant)
Experimental: as §1, §2

[4] = test system: 501Mel-GP cells (Dabrafenib-resistant); details: for Cell viability in kinase inhibitor library screening, 501Mel GP, 1μΜ / Cell viability in kinase inhibitor library screening, 501Mel GP, 10μΜ / cell viability (kinase inhibitor library screening): 72 h, 501Mel GP; for Cell viability in kinase inhibitor library screening, 501Mel GP, 1μΜ / Cell viability in kinase inhibitor library screening, 501Mel GP, 10μΜ: in %
Experimental: as §1, §2

[5] = test system: 501Mel cells (parental); details: 501Mel Parental, 72 h, in %
Experimental: as §1, §2

[6] = test system: A375-GP cells (Dabrafenib-resistant); details: for Cell viability in kinase inhibitor library screening, A375 GP, 1μΜ / Cell viability in kinase inhibitor library screening, A375 GP, 10μΜ / cell viability (kinase inhibitor library screening): 72 h, A375 GP
Experimental: as §1, §2

[7] = test system: IGR37-XP cells (Vemurafenib-resistant); details: for Cell viability in kinase inhibitor library screening, IGR37 XP, 10μΜ / Cell viability in kinase inhibitor library screening, IGR37 XP, 1μΜ / cell viability (kinase inhibitor library screening): 72 h, IGR37 XP; for Cell viability in kinase inhibitor library screening, IGR37 XP, 1μΜ: in %
Experimental: as §1, §2

[8] = test system: 501Mel-XP cells (Vemurafenib-resistant); details: for Cell viability in kinase inhibitor library screening, 501Mel XP, 1μΜ / Cell viability in kinase inhibitor library screening, 501Mel XP, 10μΜ: in %
Experimental: as §1, §2

[9] = test system: IGR37 cells (parental)
Experimental: as §1, §2

Structure (SMILES): Cc1nc(NC(=O)N2CCC[C@H]2C(N)=O)sc1-c1csc(C(C)(C)C)n1 [A66]
- Cell viability in kinase inhibitor library screening, A375 Parental, 10μΜ ([1]; 10μΜ): 72.4
- Cell viability in kinase inhibitor library screening, A375 Parental, 1μΜ ([1]; 1μΜ): 98.3
- Cell viability in kinase inhibitor library screening, A375 XP, 1μΜ ([2]; 1μΜ): 92.2
- Cell viability in kinase inhibitor library screening, A375 XP, 10μΜ ([2]; 10μΜ): 75.9
- Cell viability in kinase inhibitor library screening, IGR37 GP, 10μΜ ([3]; IGR37 GP, 10μΜ, 72 h): 75%
- Cell viability in kinase inhibitor library screening, IGR37 GP, 1μΜ ([3]; IGR37 GP, 1μΜ, 72 h, in %): 91.2
- Cell viability in kinase inhibitor library screening, 501Mel GP, 1μΜ ([4]; 1μΜ): 92.2
- Cell viability in kinase inhibitor library screening, 501Mel GP, 10μΜ ([4]; 10μΜ): 75.2
- Cell viability in kinase inhibitor library screening, 501Mel Parental, 1μΜ ([5]; 1μΜ): 94.4
- Cell viability in kinase inhibitor library screening, 501Mel Parental, 10μΜ ([5]; 10μΜ): 85.2
- Cell viability in kinase inhibitor library screening, A375 GP, 1μΜ ([6]; 1μΜ): 93.1
- Cell viability in kinase inhibitor library screening, A375 GP, 10μΜ ([6]; 10μΜ): 64.2
- Cell viability in kinase inhibitor library screening, IGR37 XP, 10μΜ ([7]; 10μΜ): 41.5%
- Cell viability in kinase inhibitor library screening, IGR37 XP, 1μΜ ([7]; 1μΜ): 91.5
- Cell viability in kinase inhibitor library screening, 501Mel XP, 1μΜ ([8]; 501Mel XP, 72 h): 102.8
- Cell viability in kinase inhibitor library screening, 501Mel XP, 10μΜ ([8]; 501Mel XP, 10μΜ, 72 h): 65.7

Structure (SMILES): COc1ccc2c(Oc3ccc(NC(=O)c4c(C)n(CC(C)(C)O)n(-c5ccccc5)c4=O)nc3)ccnc2c1 [AMG458]
- cell viability (kinase inhibitor library screening) ([1]; 10μΜ): 96.0%
- cell viability (kinase inhibitor library screening) ([1]; 1μΜ): 106.7%
- cell viability (kinase inhibitor library screening) ([2]; 1μΜ): 106.6%
- cell viability (kinase inhibitor library screening) ([2]; 10μΜ): 96.2%
- cell viability (kinase inhibitor library screening) ([9]; IGR37 Parental, 1μΜ, 72 h): 107.7%
- cell viability (kinase inhibitor library screening) ([3]; IGR37 GP, 1μΜ, 72 h): 97.0%
- cell viability (kinase inhibitor library screening) ([3]; IGR37 GP, 10μΜ, 72 h): 88.1%
- cell viability (kinase inhibitor library screening) ([4]; 1μΜ): 92.9%
- cell viability (kinase inhibitor library screening) ([4]; 10μΜ): 70.8%
- cell viability (kinase inhibitor library screening) ([6]; 1μΜ): 107.8%
- cell viability (kinase inhibitor library screening) ([6]; 10μΜ): 90.9%
- cell viability (kinase inhibitor library screening) ([7]; 1μΜ): 94.8%
- cell viability (kinase inhibitor library screening) ([7]; 10μΜ): 55.7%
- cell viability (kinase inhibitor library screening) ([8]; 501Mel XP, 10μΜ, 72 h): 51.7%

Structure (SMILES): Cc1ccccc1-n1c(Cn2cnc3c(N)ncnc32)nc2cccc(C)c2c1=O [IC-87114]
- Cell viability in kinase inhibitor library screening, A375 Parental, 10μΜ ([1]; 10μΜ): 90.3
- Cell viability in kinase inhibitor library screening, A375 Parental, 1μΜ ([1]; 1μΜ): 98.8
- Cell viability in kinase inhibitor library screening, A375 XP, 1μΜ ([2]; 1μΜ): 103.8
- Cell viability in kinase inhibitor library screening, A375 XP, 10μΜ ([2]; 10μΜ): 102.9
- Cell viability in kinase inhibitor library screening, IGR37 Parental, 1μΜ ([9]; IGR37 Parental, 1μΜ, 72 h, in %): 97.2
- Cell viability in kinase inhibitor library screening, IGR37 Parental, 10μΜ ([9]; IGR37 Parental, 10μΜ, 72 h, in %): 99.7
- Cell viability in kinase inhibitor library screening, IGR37 GP, 10μΜ ([3]; IGR37 GP, 10μΜ, 72 h): 91.5%
- Cell viability in kinase inhibitor library screening, 501Mel GP, 1μΜ ([4]; 1μΜ): 100.1
- Cell viability in kinase inhibitor library screening, 501Mel GP, 10μΜ ([4]; 10μΜ): 87.1
- Cell viability in kinase inhibitor library screening, A375 GP, 1μΜ ([6]; 1μΜ): 93.5
- Cell viability in kinase inhibitor library screening, A375 GP, 10μΜ ([6]; 10μΜ): 88.8
- Cell viability in kinase inhibitor library screening, IGR37 XP, 10μΜ ([7]; 10μΜ): 77.2%
- Cell viability in kinase inhibitor library screening, IGR37 XP, 1μΜ ([7]; 1μΜ): 93.3
- Cell viability in kinase inhibitor library screening, 501Mel XP, 1μΜ ([8]; 501Mel XP, 72 h): 98.1
- Cell viability in kinase inhibitor library screening, 501Mel XP, 10μΜ ([8]; 501Mel XP, 10μΜ, 72 h): 83.6

Structure (SMILES): FC(F)(F)c1ccc(/C=C/c2nc(COc3ccc(CCCCn4ccnn4)cc3)co2)cc1 [Mubritinib (TAK 165)]
- cell viability, A375 Parental, 1μΜ [1]: 94.8
- cell viability, A375 Parental, 10μΜ [1]: 91.7
- cell viability, A375 XP, 1μΜ [2]: 94.9
- cell viability, A375 XP, 10μΜ [2]: 98.4
- cell viability, IGR37 Parental, 1μΜ [9]: 98.7
- cell viability, IGR37 Parental, 10μΜ [9]: 100.1
- cell viability, IGR37 GP, 1μΜ [3]: 99.8
- cell viability, IGR37 GP, 10μΜ [3]: 95.3
- cell viability, 501Mel GP, 10μΜ [4]: 95.8
- cell viability, A375 GP, 1μΜ [6]: 93.7
- cell viability, A375 GP, 10μΜ [6]: 94.7
- cell viability, IGR37 XP, 1μΜ [7]: 98.3
- cell viability, IGR37 XP, 10μΜ [7]: 81.5
- cell viability, 501Mel XP, 1μΜ [8]: 92.8
- cell viability, 501Mel XP, 10μΜ [8]: 81.6
